# Measurements: PubChem BioAssay (NCI)
#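 Interpolation was linear, between the two tested concentrations surrounding the appropriate level; five concentrations were tested over 48 hours in 96-well plates. GI50 is the concentration that inhibits growth by half. TGI denotes the concentration required for complete inhibition of growth.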
# Columns and labels:
# Assay in all cases: inhibition of tumour cell growth, NCI panel, 48 h
# [1] = system: NCI-H522 lung
# [2] = system: SF-268 CNS
# [3] = system: M14 melanoma
# [4] = system: T-47D breast
# [5] = system: 786-0 renal
# [6] = system: OVCAR-8 ovarian
# [7] = system: MDA-MB-435
# [8] = system: HT29 colon
# [9] = system: OVCAR-5 ovarian
# [10] = system: SK-MEL-2 melanoma
# [11] = system: NCI-H460 lung
# [12] = system: TK-10 renal
# [13] = system: K-562 leukemia
# [14] = system: SK-MEL-5 melanoma
# [15] = system: BT-549 breast
# [16] = system: HS 578T breast
# [17] = system: COLO 205 colon
# [18] = system: HCC-2998 colon
# [19] = system: ACHN renal
# [20] = system: SN12C renal
# [21] = system: CCRF-CEM leukemia
# [22] = system: NCI/ADR-RES ovarian
# [23] = system: A549 NSCLC
# [24] = system: LOX IMVI melanoma
# [25] = system: KM12 colon
# [26] = system: SW-620 colon
# [27] = system: HCT-15 colon
# [28] = system: HCT-116 colon
# [29] = system: U251 CNS
# [30] = system: SNB-19 CNS
# [31] = system: UACC-257 melanoma
# [32] = system: RPMI-8226 leukemia
# [33] = system: UACC-62 melanoma
# [34] = system: HL-60(TB) leukemia
# [35] = system: A498 renal
# [36] = system: SR leukemia
# [37] = system: OVCAR-4 ovarian
# [38] = system: DU-145 prostate
# [39] = system: SF-539 CNS
# [40] = system: HOP-92 NSCLC
# [41] = system: HOP-62 NSCLC
# [42] = system: IGROV1 ovarian
# [43] = system: MOLT-4 leukemia
# [44] = system: NCI-H23 lung
# [45] = system: MALME-3M melanoma
# [46] = system: PC-3 prostate
# [47] = system: UO-31 renal
# [48] = system: NCI-H226 lung
# [49] = system: SK-OV-3 ovarian
# [50] = system: CAKI-1 renal
# [51] = system: SK-MEL-28 melanoma
# [52] = system: RXF 393 renal
# [53] = system: SNB-75 CNS
# [54] = system: OVCAR-3 ovarian
# [55] = system: MDA-MB-231 breast
# [56] = system: SF-295 CNS
# [57] = system: EKVX NSCLC
# [58] = system: MCF7 breast
structure (smiles),measurement,setting,value
CCOc1ccccc1-n1c(CN2CCN(C(=O)COc3ccc(CNCCCCCCN4C5CCCC4CC(OC(=O)Nc4cc(C)ccc4OC)C5)cc3)CC2)nc2ccccc2c1=O (stereo unspecified),GI50,[1],1.79 µM
same,TGI,[1],3.45 µM
same,GI50,[2],1.44 µM
same,TGI,[2],2.99 µM
same,GI50,[3],1.43 µM
same,TGI,[3],3.01 µM
same,GI50,[4],1.78 µM
same,TGI,[4],3.88 µM
same,GI50,[5],1.58 µM
same,TGI,[5],3.09 µM
same,GI50,[6],1.83 µM
same,TGI,[6],3.75 µM
same,GI50,[7],0.811 µM
same,TGI,[7],2.12 µM
same,GI50,[8],0.798 µM
same,TGI,[8],2.05 µM
same,GI50,[9],1.9 µM
same,TGI,[9],3.45 µM
same,GI50,[10],1.99 µM
same,TGI,[10],3.62 µM
same,GI50,[11],0.806 µM
same,TGI,[11],1.94 µM
same,GI50,[12],1.72 µM
same,TGI,[12],3.14 µM
same,GI50,[13],0.651 µM
same,TGI,[13],1.36 µM
same,GI50,[14],1.52 µM
same,TGI,[14],2.92 µM
same,GI50,[15],1.72 µM
same,TGI,[15],3.26 µM
same,GI50,[16],1.86 µM
same,TGI,[16],3.94 µM
same,GI50,[17],1.78 µM
same,TGI,[17],3.69 µM
same,GI50,[18],1.57 µM
same,TGI,[18],3.15 µM
same,GI50,[19],2.4 µM
same,TGI,[19],5.9 µM
same,GI50,[20],1.76 µM
same,TGI,[20],3.24 µM
same,GI50,[21],0.16 µM
same,TGI,[21],1.21 µM
same,GI50,[22],7.04 µM
same,TGI,[22],19.6 µM
same,GI50,[23],1.67 µM
same,TGI,[23],3.27 µM
same,GI50,[24],0.582 µM
same,TGI,[24],1.08 µM
same,GI50,[25],1.66 µM
same,TGI,[25],3.27 µM
same,GI50,[26],0.757 µM
same,TGI,[26],2 µM
same,GI50,[27],2.23 µM
same,TGI,[27],5.4 µM
same,GI50,[28],0.616 µM
same,TGI,[28],1.32 µM
same,GI50,[29],0.61 µM
same,TGI,[29],1.2 µM
same,GI50,[30],1.76 µM
same,TGI,[30],3.35 µM
same,GI50,[31],1.88 µM
same,TGI,[31],3.45 µM
same,GI50,[32],1.13 µM
same,TGI,[32],3.4 µM
same,GI50,[33],1.77 µM
same,TGI,[33],3.22 µM
same,GI50,[34],0.64 µM
same,TGI,[34],1.35 µM
same,GI50,[35],2.11 µM
same,TGI,[35],4.64 µM
same,GI50,[36],0.656 µM
same,TGI,[36],1.59 µM
same,GI50,[37],1.75 µM
same,TGI,[37],3.34 µM
same,GI50,[38],1.8 µM
same,TGI,[38],3.49 µM
same,GI50,[39],1.69 µM
same,TGI,[39],3.14 µM
same,GI50,[40],1.37 µM
same,TGI,[40],2.76 µM
same,GI50,[41],1.7 µM
same,TGI,[41],3.25 µM
same,GI50,[42],1.72 µM
same,TGI,[42],3.47 µM
same,GI50,[43],0.68 µM
same,TGI,[43],1.5 µM
same,GI50,[44],1.93 µM
same,TGI,[44],3.66 µM
same,GI50,[45],1.7 µM
same,TGI,[45],3.21 µM
same,GI50,[46],1.59 µM
same,TGI,[46],3.61 µM
same,GI50,[47],4.07 µM
same,TGI,[47],8.15 µM
same,GI50,[48],1.88 µM
same,TGI,[48],3.91 µM
same,GI50,[49],1.89 µM
same,TGI,[49],3.45 µM
same,GI50,[50],1.63 µM
same,TGI,[50],3.06 µM
same,GI50,[51],1.81 µM
same,TGI,[51],3.25 µM
same,GI50,[52],1.38 µM
same,TGI,[52],2.88 µM
same,GI50,[53],1.4 µM
same,TGI,[53],2.72 µM
same,GI50,[54],1.78 µM
same,TGI,[54],3.49 µM
same,GI50,[55],0.815 µM
same,TGI,[55],2.13 µM
same,GI50,[56],1.66 µM
same,TGI,[56],3.27 µM
same,GI50,[57],1.67 µM
same,TGI,[57],3.33 µM
same,GI50,[58],0.75 µM
same,TGI,[58],2.06 µM
